Among the data in patent publication US20250051355A1, “COMPOUNDS, COMPOSITIONS, AND METHODS” (ACONCAGUA BIO, INC., priority 2023, published 2025) are EC50 values, retold here.

Assay [1] addresses human calcitonin receptor (CTR) and RAMP3 (AMY3) (Homo sapiens, UniProt O60896+P30988). Nature of the assay: Amylin Receptor cAMP Assay II. Particulars: COS-7/AMY3 cells, cAMP dynamic 2 kit, read-out: Amylin Receptor cAMP Stimulation Activity: EC50. In kind it is cell-based. Summed up: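 COS-7 cells stably co-expressing human CTR and RAMP3 (AMY3) were treated with 4-fold serially diluted compounds at 2000 cells/well in HBSS with 20 mM HEPES, 0.5 mM IBMX and 0.1% casein for 30 min at 37 °C. cAMP was measured by HTRF (cAMP-d2 plus anti-cAMP cryptate, 1 h at RT) with reads at 665/615 nm.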

Assay [2] concerns the target T1, human calcitonin receptor (CTR) (Homo sapiens, UniProt P30988).
T1 construct: expressed in transfected cells; host or cells: COS-7 (COS7-human CTR Clone #2)
T1 sequence (P30988 25-474): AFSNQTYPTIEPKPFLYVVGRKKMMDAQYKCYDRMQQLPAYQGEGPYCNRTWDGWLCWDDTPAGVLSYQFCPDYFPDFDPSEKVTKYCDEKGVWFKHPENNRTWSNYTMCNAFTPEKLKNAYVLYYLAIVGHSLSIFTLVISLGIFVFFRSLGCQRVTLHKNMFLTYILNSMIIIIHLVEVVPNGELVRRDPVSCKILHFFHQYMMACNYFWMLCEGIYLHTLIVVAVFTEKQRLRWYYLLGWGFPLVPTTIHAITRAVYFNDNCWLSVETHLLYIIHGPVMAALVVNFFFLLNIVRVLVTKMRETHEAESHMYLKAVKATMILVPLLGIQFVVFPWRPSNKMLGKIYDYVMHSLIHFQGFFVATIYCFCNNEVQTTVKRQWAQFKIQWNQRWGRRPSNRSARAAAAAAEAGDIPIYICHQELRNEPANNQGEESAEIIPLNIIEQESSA
As to the kind of experiment: Calcitonin receptor (CTR) cAMP Assay. In kind it is cell-based. The settings on record: COS7-human CTR Clone #2 cells, cAMP dynamic 2 kit; read-out: Calcitonin Receptor cAMP Stimulation Activity: EC50. Summed up:
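COS-7 cells stably expressing human CTR (2000 cells/well) treated with 4-fold serially diluted compounds in HBSS/20 mM HEPES/0.5 mM IBMX/0.1% casein, 30 min at 37° C. cAMP quantified by HTRF (cAMP-d2 plus anti-cAMP cryptate, 1 h RT), fluorescence read at 665 and 615 nm.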

Structures are written as SMILES. Where only a bound is given, the exact number is not on record here.

Sequence of human calcitonin receptor (CTR) and RAMP3 (AMY3) (O60896 24-148, one chain of several): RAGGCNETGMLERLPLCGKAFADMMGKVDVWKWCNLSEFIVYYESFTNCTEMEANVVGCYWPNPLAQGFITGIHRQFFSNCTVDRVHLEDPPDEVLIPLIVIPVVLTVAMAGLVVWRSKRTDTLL

With `Cc1nnc(-c2c(CCC3CCOCC3)nc3c(c2-c2cc4ccnc(Cc5ccc(F)c(F)c5)c4s2)S(=O)(=O)CC3C(C)C)o1` (stereo not shown) [Compound 138, 7-(7-[(3,4-difluorophenyl)methyl]-1-thia-6-aza-2-indenyl}-3-isopropyl-6-(5-methyl-1,3,4-oxadiazol-2-yl)-5-[2-(tetrahydro-2H-pyran-4-yl)ethyl]-1λ^6-thia-4-aza-1,1-indandione], the EC50 in assay [1] was found to be 869 nM; in assay [2] it was 115 nM.
As to `Cc1nnc(-c2c(CC3CCOCC3)nc3c(c2-c2cc4ccnc(N[C@@H]5CCc6ncccc65)c4s2)S(=O)(=O)CC3C(C)C)o1` (stereo partly drawn) [Compound 96, N—(R)-4-aza-1-indanyl(2-(3-isopropyl-6-(5-methyl-1,3,4-oxadiazol-2-yl)-1,1-dioxo-5-[(tetrahydro-2H-pyran-4-yl)methyl]-1λ^6-thia-4-aza-7-indanyl}-1-thia-6-aza-7-indenyl)amine], the EC50 in assay [1] was 1300 nM; in assay [2], 226 nM.
Regarding `Cc1nnc(-c2c(CCC3CCOCC3)nc3c(c2C2CCN(C(=O)Cc4ccc(F)c(F)c4)CC2)S(=O)(=O)CC3C(C)C)o1` (stereo not shown) [Compound 106, 7-{1-[2-(3,4-difluorophenyl)acetyl]-4-piperidyl}-3-isopropyl-6-(5-methyl-1,3,4-oadiazol-2-yl)-5-[2-(tetrahydro-2H-pyran-4-yl)ethyl]-1λ^6-thia-4-aza-1,1-indandione], the 50% effective concentration (EC50) in assay [1] was over 100 nM; in assay [2] it was 3230 nM.
Taken in the same sequence, the figures for `Cc1nnc(-c2c(CCC34CCC(CC3)OC4)nc3c(c2-c2cc4ccnc(N[C@@H]5CCc6ncccc65)c4s2)c(=O)n2n3CCC2)o1` [Compound 147, 6-((2S)-2-methyl-10-(2-methyl-4-pyridyl)-7-oxo-11-[2-(tetrahydro-2H-pyran-4-yl)ethyl]-6,12-diazatricyclo[6.4.0.0,^1I]dodeca-1(12),8,10-trien-9-yl}-3-[(5-chloro-3-fluoro-2-pyridyl)methyl]-1,3-benzoxazol-2(3H)-one] were 180 nM and 17.2 nM.
In the same order, the values of `Cc1cc(-c2c(CCC3CCOCC3)nc3c(c2-c2ccc4c(c2)oc(=O)n4Cc2ccc(C#N)c(F)c2)c(=O)n2n3CCC2)ccn1` [Compound 151, 2-fluoro-4-[(6-(10-(2-methyl-4-pyridyl)-7-oxo-11-[2-(tetrahydro-2H-pyran-4-yl)ethyl]-2,6,12-triazatricyclo[6.4.0.0^2,6]dodeca-1(12),8,10-trien-9-yl}-2-oxo-1,3-benzoxazol-3-yl)methyl]benzonitrile] are 73 nM and 5.12 nM.
In the same order, the values of `Cc1nnc(-c2c(CCC3CCOCC3)nc3c(c2-c2ccc4c(c2)oc(=O)n4Cc2ccc(C#N)cn2)C(=O)N2CCC[C@@H]32)o1` [Compound 125, 6-[(6-((2S)-10-(5-methyl-1,3,4-oxadiazol-2-yl)-7-oxo-11-[2-(tetrahydro-2H-pyran-4-yl)ethyl]-6,12-diazatricyclo[6.4.0.0^2,6,]dodeca-1(12),8,10-trien-9-yl}-2-oxo-1,3-benzoxazol-3-yl)methyl]nicotinonitrile] are 174 nM and 6.63 nM.
Consider `Cc1nnc(-c2c(CCC3CCOCC3)nc3c(c2C2CCN(C(=O)Cc4ccc(F)c(F)c4)C2)S(=O)(=O)CC3C(C)C)o1` (stereo not shown) [Compound 107, 7-{1-[2-(3,4-difluorophenyl)acetyl]-3-pyrrolidinyl}-3-isopropyl-6-(5-methyl-1,3,4-oxadiazol-2-yl)-5-[2-(tetrahydro-2H-pyran-4-yl)ethyl]-1D′-thia-4-aza-1,1-indandione], for which the EC50 was over 100 nM in assay [1] and 6580 nM in assay [2].
For `Cc1nnc(-c2c(CCC3CCOCC3)nc3c(c2-c2cnc4c(ccn4Cc4ccc(C#N)cn4)c2)C(=O)N2CCC[C@@H]32)o1` [Compound 124, 6-[(5-((2S)-10-(5-methyl-1,3,4-oxadiazol-2-yl)-7-oxo-11-[2-(tetrahydro-2H-pyran-4-yl)ethyl]-6,12-diazatricyclo[6.4.0.0,^1I]dodeca-1(12),8,10-trien-9-yl}-1H-1,7-diazainden-1-yl)methyl]nicotinonitrile], the concentration giving a half-maximal response (EC50) in assay [1] turned out to be 2700 nM; in assay [2] it was 216 nM.
Taken in the same sequence, the figures for `Cc1ccnc(-c2c(CCC3CCOCC3)nc3c(c2-c2cc4ccnc(N[C@@H]5CCc6ncccc65)c4s2)S(=O)(=O)CC3C(C)C)c1` (stereo partly drawn) [Compound 118, N—(R)-4-aza-1-indanyl(2-(3-isopropyl-6-(4-methyl-2-pyridyl)-1,1-dioxo-5-[2-(tetrahydro-2H-pyran-4-yl)ethyl]-11′-thia-4-aza-7-indanyl}-1-thia-6-aza-7-indenyl)amine] were 449 nM and 72.8 nM.
Turning to `Cc1nnc(-c2c(CCC3CCOCC3)nc3c(c2-c2cc4ccnc(N[C@@H]5CCc6ncccc65)c4o2)S(=O)(=O)CC3C(C)C)o1` (stereo partly drawn) [Compound 90, N—(R)-4-aza-1-indanyl(2-(3-isopropyl-6-(5-methyl-1,3,4-oxadiazol-2-yl)-1,1-dioxo-5-[2-(tetrahydro-2H-pyran-4-yl)ethyl]-1λ^6-thia-4-aza-7-indanyl}-1-oxa-6-aza-7-indenyl)amine], the EC50 in assay [1] was 1580 nM; in assay [2], 998 nM.
As to `Cc1nnc(-c2c(CCC3CCOCC3)nc3c(c2-c2cc4ncnc(N[C@@H]5CCc6ncccc65)c4s2)S(=O)(=O)CC3C(C)C)o1` (stereo partly drawn) [Compound 89, N—(R)-4-aza-1-indanyl(2-(3-isopropyl-6-(5-methyl-1,3,4-oxadiazol-2-yl)-1,1-dioxo-5-[2-(tetrahydro-2H-pyran-4-yl)ethyl]-1λ^6-thia-4-aza-7-indanyl}-1-thia-4,6-diaza-7-indenyl)amine], the EC50 was determined as 587 nM in assay [1] and 42.9 nM in assay [2].
Consider `Cc1nnc(-c2c(CCC3CCCCO3)nc3c(c2-c2ccc(C(=O)NCc4ccc(F)c(F)c4)s2)C(=O)N2CCC[C@@H]32)o1` (stereo partly drawn) [Compound 62, N-(3,4-difluorobenzyl)-5-((9aS)-3-(5-methyl-1,3,4-oxadiazol-2-yl)-5-oxo-2-(2-(tetrahydro-2H-pyran-2-yl)ethyl)-7,8,9,9a-tetrahydro-5H-pyrido[2,3-a]pyrrolizin-4-yl)thiophene-2-carboxamide], for which the EC50 in assay [1] was found to be 2070 nM; in assay [2], 129 nM.
As to `Cc1nnc(-c2c(CCC3CCOCC3)nc3c(c2-c2cn4cccc(N[C@@H]5CCc6ncccc65)c4n2)S(=O)(=O)CC3C(C)C)o1` (stereo partly drawn) [Compound 88, N—(R)-4-aza-1-indanyl(2-(3-isopropyl-6-(5-methyl-1,3,4-oxadiazol-2-yl)-1,1-dioxo-5-[2-(tetrahydro-2H-pyran-4-yl)ethyl]-1λ^6-thia-4-aza-7-indanyl}-1,3a-diaza-7-indenyl)amine], the results for the EC50 in assay [1] and in assay [2] were 3100 nM and 1050 nM, respectively.
Taken in the same sequence, the figures for `Cc1nnc(-c2c(CCC3CCOCC3)nc3c(c2-c2ccc4c(c2)oc(=O)n4Cc2ccc(C#N)c(F)c2)C(=O)N2CCOC[C@@H]32)o1` [Compound 104, 4-[(6-((4aR)-7-(5-methyl-1,3,4-oxadiazol-2-yl)-9-oxo-6-[2-(tetrahydro-2H-pyran-4-yl)ethyl]-1,2,4,4a-tetrahydro-9H-3-oxa-5,9a-diazafluoren-8-yl}-2-oxo-1,3-benzoxazol-3-yl)methyl]-2-fluorobenzonitrile] were 42.4 nM and 1.25 nM.
As to `Cc1nnc(-c2c(CCC3CCOCC3)nc3c(c2-c2ccn4c(Cc5ccc(F)c(F)c5)cnc4c2)S(=O)(=O)CC3C(C)C)o1` (stereo not shown) [Compound 122, 7-(3-[(3,4-difluorophenyl)methyl]-1,3a-diaza-6-indenyl}-3-isopropyl-6-(5-methyl-1,3,4-oxadiazol-2-yl)-5-[2-(tetrahydro-2H-pyran-4-yl)ethyl]-1λ^6-thia-4-aza-1,1-indandione], the EC50 was found to be 1540 nM in assay [1] and 49.2 nM in assay [2].
With `Cc1nnc(-c2c(CCC3CCOCC3)nc3c(c2-c2ccc4c(c2)oc(=O)n4Cc2ccc(C#N)cn2)S(=O)(=O)N2CCC[C@@H]32)o1` [Compound 127, 6-[(6-{(2S)-10-(5-methyl-1,3,4-oxadiazol-2-yl)-7,7-dioxo-11-[2-(tetrahydro-2H-pyran-4-yl)ethyl]-7λ^6-thia-6,12-diazatricyclo[6.4.0.0^2,6]dodeca-1(12),8,10-trien-9-yl}-2-oxo-1,3-benzoxazolidin-3-yl)methyl]nicotinonitrile], the 50% effective concentration (EC50) in assay [1] amounted to 209 nM; in assay [2] it was 3.86 nM.
For `Cc1nnc(-c2c(CCC3CCOCC3)nc3c(c2-c2cc4ccnc(N[C@@H]5CCc6ncccc65)c4s2)S(=O)(=O)CC3C(C)C)o1` (stereo partly drawn) [Compound 78, 7-(7-(((R)-6,7-dihydro-5H-cyclopenta[b]pyridin-5-yl)amino)thieno[2,3-c]pyridin-2-yl)-3-isopropyl-6-(5-methyl-1,3,4-oxadiazol-2-yl)-5-(2-(tetrahydro-2H-pyran-4-yl)ethyl)-2,3-dihydrothieno[3,2-b]pyridine 1,1-dioxide], the concentration for a half-maximal effect (EC50) in assay [1] was 187 nM; in assay [2], 13 nM.
